Read-outs that look alike come from different tables or passages of the source. Starred links: 1 amine or outer side, 2 acyl side, 3 side chain; linkers in the order of their positions; H or OH if unused. Non-standard residues stand in square brackets, D forms with d. Residues, ends and D or L forms follow the SMILES beside them. Groups on a side chain read outwards from the residue. *: point of attachment. C20 diacid = O=C(O)CCCCCCCCCCCCCCCCCCC(=O)*; γGlu = O=C(O)[C@H](CCC(=O)[*:2])N[*:1]; NMeI = CC[C@H](C)[C@H](NC)C(=O)O; Nle = CCCC[C@H](N)C(=O)O; AEEA = NCCOCCOCC(=O)O; Aib = CC(C)(N)C(=O)O
Key:
rCRHR2 = molecular target: T1, rCRHR2 (Rattus norvegicus, UniProt P47866); experiment: cAMP potency, transiently transfected CHO-K1 cells, rCRHR2; type: cell-based; settings: transiently transfected CHO-K1, average n=3; read-out: Transient cell system EC50 (nM) rCRHR 2
T1 construct: DYK (FLAG); host or cells: CHO-K1, transiently transfected
T1 sequence (P47866 whole entry): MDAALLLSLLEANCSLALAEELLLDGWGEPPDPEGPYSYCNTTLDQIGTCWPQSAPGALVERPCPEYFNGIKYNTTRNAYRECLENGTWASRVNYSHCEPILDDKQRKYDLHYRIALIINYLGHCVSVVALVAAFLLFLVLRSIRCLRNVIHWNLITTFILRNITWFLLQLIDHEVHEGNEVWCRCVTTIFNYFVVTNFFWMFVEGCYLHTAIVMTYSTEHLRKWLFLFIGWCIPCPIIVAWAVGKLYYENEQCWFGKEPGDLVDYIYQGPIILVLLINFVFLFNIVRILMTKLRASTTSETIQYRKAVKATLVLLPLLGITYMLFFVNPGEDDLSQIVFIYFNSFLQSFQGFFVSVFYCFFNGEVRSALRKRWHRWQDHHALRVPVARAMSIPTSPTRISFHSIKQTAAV
Experimental: (§1) Selected peptides were tested for potency on different species (mouse, rat, porcine) using transiently transfected CHO-K1 cells using the general procedure.

PK in minipigs = settings: male, Göttingen, minipig, in vivo; for half-life: read-out: T½ (converted); for bioavailability / Cmax / Tmax: sc; for Cmax / Tmax: 6.0 nmol/kg s.c
Experimental: Pharmacokinetics studies were determined in male Göttingen minipigs from Ellegaard Göttingen Minipigs A/S. Animals were acclimatised for at least 7 days before placed on study. The minipigs had prior to study been surgically implanted with central venous catheters inserted which were used for blood sampling. Animals were housed under a 12/12 h dark-light cycle with ad libitum access to domestic water and animals were fed a commercially standard maintenance diet twice daily.
Test compounds where administrated either as a cassette or as a single compound. Test compounds were administrated by a single intravenous injection or short infusion (5-10 min) through the implanted catheter or a single subcutaneously injection. The subcutaneously injection was given in the mid neck between ear and scapula with a stopper on the needle, allowing 0.5 cm of the needle to be inserted.Plasma concentration-time profiles employing 12-16 sampling points were obtained from each animal. As an example, blood samples were collected on the following times: 0 (predose), 0.17, 0.33, 0.5, 1, 2, 5, 6, 24, 48, 72, 92, 168, 240 and 336 hrs post administration. Approximately 2 mL blood was drawn from the central catheter from each animal at each sampling point. Blood samples were taken in K2 or K3 EDTA tubes. Blood was kept on ice for maximum 30 min before centrifugation (10 min, 4°C, 2000 x g). Approximately 200 µL plasma samples was transferred to a Micronic tube and stored at -20° or lower.
Pharmacokinetics parameters were calculated by non-compartmental analysis (NCA) of the individual plasma concentrations-time profile from the animals. The log-linear trapezoidal method was used for estimation of AUC and AUMC. The terminal T½ was determined as In(2)/λz where λz is the first order rate constant as determined by the terminal log-linear part of the curve.
Plasma concentrations were measured by LC-MSMS using electrospray ionization and multiple reaction monitoring. Calibration standards and quality control (QC) samples were prepared in specie match matrix. 15 µL calibration standards, QC and study samples were extracted by protein precipitation using 60 µL methanol followed by addition of 45 µL milliQ water. Samples were shaken (800 rpm) at room temperature for 5 min before centrifugation (2570×g, 40 min, 4°C) and the supernatant was transferred to a LoBind PCR plate. Samples were analysed on a Thermo Triscend UHPLC system coupled to a Sciex API 6500+ mass spectrometer. Samples were subject to online SPE clean-up on a HLB column (1×50 mm, Waters) before loaded onto a Aeris Peptide XB C18 column (3.6 µm, 100 Å, 2×50 mm, Phenomenex) analytical column. The mobile phases consisted of acetonitrile and milliQ H2O both containing 0.1% V/V formic acid. The flow rate was 0.60 mL/min and the column was kept at room temperature.

hCRHR1 = molecular target: T2, hCRHR1 (Homo sapiens, UniProt P34998); experiment: cAMP potency, transiently transfected CHO-K1 cells, hCRHR1; type: cell-based; set-up: DYK (FLAG); host or cells: CHO-K1, transiently transfected; settings: transiently transfected CHO-K1, average n=3; read-out: Transient cell system EC50 (nM) hCR HR1
T2 sequence (P34998 24-415): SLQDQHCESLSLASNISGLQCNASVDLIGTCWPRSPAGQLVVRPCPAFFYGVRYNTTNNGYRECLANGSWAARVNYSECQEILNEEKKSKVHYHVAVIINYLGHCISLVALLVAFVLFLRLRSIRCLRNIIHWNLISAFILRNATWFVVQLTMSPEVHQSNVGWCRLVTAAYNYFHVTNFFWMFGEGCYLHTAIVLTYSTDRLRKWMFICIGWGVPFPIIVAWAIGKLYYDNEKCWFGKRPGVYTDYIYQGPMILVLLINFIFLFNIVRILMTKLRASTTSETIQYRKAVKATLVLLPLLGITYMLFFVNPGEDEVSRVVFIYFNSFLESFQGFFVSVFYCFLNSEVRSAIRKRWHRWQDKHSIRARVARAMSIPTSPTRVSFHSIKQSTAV

pCRHR2 = experiment: cAMP potency, transiently transfected CHO-K1 cells, pCRHR2; type: cell-based, pig; settings: transiently transfected CHO-K1, average n=3; read-out: Transient cell system EC50 (nM) pCR HR2
Experimental: as §1

hCRHR2b = molecular target: T3, hCRHR2b (Homo sapiens, UniProt Q13324); experiment: cAMP potency, transiently transfected CHO-K1 cells, hCRHR2b; type: cell-based; settings: transiently transfected CHO-K1, average n=3; read-out: Transient cell system EC50 (nM) hCRHR 2b
T3 construct: DYK (FLAG); host or cells: CHO-K1, transiently transfected
T3 sequence (Q13324 1-438 isoform Q13324-2): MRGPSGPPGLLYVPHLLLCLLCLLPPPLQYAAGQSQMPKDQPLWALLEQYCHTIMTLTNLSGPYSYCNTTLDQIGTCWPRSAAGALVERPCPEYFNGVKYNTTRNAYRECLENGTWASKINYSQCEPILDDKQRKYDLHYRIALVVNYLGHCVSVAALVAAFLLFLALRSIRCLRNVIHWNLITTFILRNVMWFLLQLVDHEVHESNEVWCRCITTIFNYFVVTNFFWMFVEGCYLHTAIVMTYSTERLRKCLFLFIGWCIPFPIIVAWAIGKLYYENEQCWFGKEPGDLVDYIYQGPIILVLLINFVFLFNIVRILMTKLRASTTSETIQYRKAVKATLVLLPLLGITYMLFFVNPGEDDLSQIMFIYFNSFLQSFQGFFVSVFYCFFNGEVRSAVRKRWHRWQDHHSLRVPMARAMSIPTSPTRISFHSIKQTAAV

Compound	EC50 (rCRHR2) [nM]	half-life (PK in minipigs; iv, Pig, 6.0 nmol/kg i.v.) [h]	bioavailability (PK in minipigs) [%]	Cmax (PK in minipigs; Pig) [nM]	Tmax (PK in minipigs; Pig) [h]	EC50 (hCRHR1) [nM]	EC50 (pCRHR2) [nM]	EC50 (hCRHR2b) [nM]	clearance (PK in minipigs; iv, Pig, 4.2 nmol/kg i.v.) [mL/day/kg]	half-life (PK in minipigs; iv, Pig, 4.2 nmol/kg i.v.) [h]
CC[C@H](C)[C@H](N)C(=O)N[C@H](C(=O)N[C@@H](CC(C)C)C(=O)N[C@@H](CO)C(=O)N[C@@H](CC(C)C)C(=O)N[C@@H](CC(=O)O)C(=O)N[C@H](C(=O)N1CCC[C@H]1C(=O)N[C@H](C(=O)NCC(=O)N[C@@H](CC(C)C)C(=O)N[C@@H](CC(C)C)C(=O)N[C@@H](CCC(N)=O)C(=O)N[C@H](C(=O)N[C@@H](CC(C)C)C(=O)N[C@@H](CC(C)C)C(=O)N[C@@H](CCC(=O)O)C(=O)N[C@@H](CCC(N)=O)C(=O)N[C@@H](C)C(=O)N[C@@H](CCCNC(=N)N)C(=O)N[C@@H](C)C(=O)N[C@@H](CCCNC(=N)N)C(=O)N[C@@H](C)C(=O)N[C@@H](C)C(=O)N[C@@H](CCCNC(=N)N)C(=O)N[C@@H](CCC(=O)O)C(=O)N[C@@H](CCC(N)=O)C(=O)N[C@@H](C)C(=O)N[C@@H](CCCCNC(=O)COCCOCCNC(=O)COCCOCCNC(=O)CC[C@H](NC(=O)CC[C@H](NC(=O)CCCCCCCCCCCCCCCCCCC(=O)O)C(=O)O)C(=O)O)C(=O)N[C@H](C(=O)N[C@@H](CC(N)=O)C(=O)N[C@@H](C)C(=O)N[C@@H](CCC(=O)O)C(=O)N[C@H](C(=O)N[C@@H](CC(C)C)C(=O)N[C@@H](C)C(=O)N[C@@H](CCC(=O)O)C(=O)N[C@H](C(N)=O)C(C)C)[C@@H](C)CC)[C@@H](C)O)[C@@H](C)CC)[C@@H](C)CC)C(C)C)C(C)C [SEQ ID NO: 3] (H-IVLSLDVPIGLLQILLEQARARAAREQAK([AEEA-AEEA-γGlu-γGlu-C20 diacid])TNAEILAEV-NH2)	0.07	156	55	60	24	> 1000	0.027	0.0081		
CC[C@H](C)[C@H](NC)C(=O)N[C@H](C(=O)N[C@@H](CC(C)C)C(=O)N[C@@H](CO)C(=O)N[C@@H](CC(C)C)C(=O)N[C@@H](CC(=O)O)C(=O)N[C@H](C(=O)N1CCC[C@H]1C(=O)N[C@H](C(=O)NCC(=O)N[C@@H](CC(C)C)C(=O)N[C@@H](CC(C)C)C(=O)N[C@@H](CCC(N)=O)C(=O)N[C@H](C(=O)N[C@@H](CC(C)C)C(=O)N[C@@H](CC(C)C)C(=O)N[C@@H](CCC(=O)O)C(=O)N[C@@H](CCC(N)=O)C(=O)N[C@@H](C)C(=O)N[C@@H](CCCNC(=N)N)C(=O)N[C@@H](C)C(=O)N[C@@H](CCCNC(=N)N)C(=O)N[C@@H](C)C(=O)N[C@@H](C)C(=O)N[C@@H](CCCNC(=N)N)C(=O)N[C@@H](CCC(=O)O)C(=O)N[C@@H](CCC(N)=O)C(=O)N[C@@H](C)C(=O)N[C@H](C(=O)N[C@@H](CCCCNC(=O)COCCOCCNC(=O)COCCOCCNC(=O)CC[C@H](NC(=O)CC[C@H](NC(=O)CCCCCCCCCCCCCCCCCCC(=O)O)C(=O)O)C(=O)O)C(=O)N[C@@H](CC(N)=O)C(=O)N[C@@H](C)C(=O)N[C@@H](CCC(=O)O)C(=O)N[C@H](C(=O)N[C@@H](CC(C)C)C(=O)N[C@@H](C)C(=O)N[C@@H](CCC(=O)O)C(=O)N[C@H](C(N)=O)C(C)C)[C@@H](C)CC)[C@@H](C)O)[C@@H](C)CC)[C@@H](C)CC)C(C)C)C(C)C [SEQ ID NO: 6] (H-[NMeI]VLSLDVPIGLLQILLEQARARAAREQATK([AEEA-AEEA-γGlu-γGlu-C20 diacid])NAEILAEV-NH2)	0.13	145				> 1000	0.03	0.015		
CCCC[C@H](NC(=O)[C@@H](NC(=O)[C@H](CCC(=O)O)NC(=O)C(C)(C)NC(=O)[C@H](CC(N)=O)NC(=O)[C@@H](NC(=O)[C@H](CCCCNC(=O)COCCOCCNC(=O)COCCOCCNC(=O)CC[C@H](NC(=O)CC[C@H](NC(=O)CCCCCCCCCCCCCCCCCCC(=O)O)C(=O)O)C(=O)O)NC(=O)[C@H](C)NC(=O)[C@H](CCC(N)=O)NC(=O)[C@H](CCC(=O)O)NC(=O)[C@H](CCCNC(=N)N)NC(=O)[C@H](C)NC(=O)[C@H](C)NC(=O)[C@H](CCCNC(=N)N)NC(=O)[C@H](C)NC(=O)[C@H](CCCNC(=N)N)NC(=O)[C@H](C)NC(=O)[C@H](CCC(N)=O)NC(=O)[C@H](CO)NC(=O)[C@H](CC(C)C)NC(=O)[C@H](CC(C)C)NC(=O)[C@@H](NC(=O)[C@H](CCC(N)=O)NC(=O)[C@H](CC(C)C)NC(=O)[C@H](CC(C)C)NC(=O)CNC(=O)[C@@H](NC(=O)[C@@H]1CCCN1C(=O)[C@@H](NC(=O)[C@H](CC(=O)O)NC(=O)[C@H](CC(C)C)NC(=O)[C@H](CO)NC(=O)[C@H](CC(C)C)NC(=O)[C@@H](NC(=O)[C@@H](NC)[C@@H](C)CC)C(C)C)C(C)C)[C@@H](C)CC)[C@@H](C)CC)[C@@H](C)O)[C@@H](C)CC)C(=O)N[C@@H](C)C(=O)N[C@@H](CCC(=O)O)C(=O)N[C@H](C(N)=O)C(C)C [SEQ ID NO: 215] (H-[NMeI]VLSLDVPIGLLQILLSQARARAAREQAK([AEEA-AEEA-γGlu-γGlu-C20 diacid])TN[Aib]EI[Nle]AEV-NH2)	0.072		68	38	24		0.017	0.016	7.2	156

Reference: EP4810052A2, “HCRHR2 SELECTIVE POLYPEPTIDES” (Gubra A/S, priority 2023, dated 2026)
